Source: patent US20210220301A1, “Pharmaceutical or Nutritional Combination Comprising Beta-Hydroxy-Betamethylbutyrate” (Abbott Laboratories, priority 2016, published 2021)

Tests used:
lean body mass = conditions: humans; Deutz et al., Clin Nutr. 2013; cited from earlier work
[1] = tested on: rats subjected to dexamethasone-induced muscle loss; assay: Dexamethasone-induced muscle loss in rats: soleus muscle mass after 21 days; format: in vivo, Sprague-Dawley rats; conditions: 200 mg/kg/day white curcumin alone, co-administered with 0.1 mg/kg/day dexamethasone i.p., day 21, FIG. 1, t-test P<0.05
Method: A study was carried out to investigate the effect of a composition comprising HMB and white curcumin (THC) in a well-established animal model for human muscle loss (β-Hydroxy-β-methylbutyrate (HMB) normalizes dexamethasone-induced autophagy-lysosomal pathway in skeletal muscle. Giron M D, Vilchez J D, Shreeram S, Salto R, Manzano M, Cabrera E, Campos N, Edens N K, Rueda R, Lopez-Pedrosa J M. PLoS One. 2015 Feb. 6; 10(2):e0117520. doi: 10.1371/journal.pone.0117520. eCollection 2015).
Experimental design—Male Sprague-Dawley rats (8-10 weeks old) (n=42) having a body weight of 270-310 g were randomly assigned to seven experimental groups (six rats per group). Groups 1-6 were administered 0.1 mg/kg/day dexamethasone (a synthetic glucocorticoid) by intraperitoneal injection for 21 days to induce muscle loss. The dexamethasone was administered at 2 mL/kg of 1.75 mg dexamethasone in 35 mL saline. Group 7 (a sham control) was administered saline without the dexamethasone.
Group 1 (a pathological control) was administered the 0.1 mg/kg/day dexamethasone alone. […]
The body weight of each rat was measured daily. On day 21 the soleus and rectus femoris muscles from each rat were collected and weighed and the lean mass of each rat was recorded. The fore limb and hind limb grip strengths were also measured. […]

Compound | minimum dose of HMB at which benefits (preserving lean body mass and muscle strength) occur (lean body mass) [mg/kg/day] | soleus muscle mass relative to the pathological control [1]
CC(C)(O)CC(=O)O [HMB, 3-hydroxy-3-methylbutanoic acid] | 50 | 
COc1cc(CCC(=O)CC(=O)CCc2ccc(O)c(OC)c2)ccc1O [white curcumin, 1,7-bis(4-hydroxy-3-methoxyphenyl)heptane-3,5-dione] |  | did not have a significant effect
